Test results taken from US4279915A, “Method of treatment using new leurosine derivatives” (priority 1973, dated 1981).

Key:
Harding Passey melanoma = settings: cited from earlier work
rhabdomyo-sarcoma = settings: cited from earlier work
VX-2 rabbit epitheloma = settings: cited from earlier work
[1] = acute toxicity in Swiss mice; format: in vivo, mouse; settings: mouse, in vivo, Swiss mice
From the text: ACUTE TOXICITY IN SWISS MICE
Table III lists the comparative toxicological data concerning Vincristine, Vinblastine and F-leurosine. The new analogue is approximately 7 times less toxic than Vincristine and 4 times less toxic than Vinblastine in acute rodent experiments.

cancer = settings: animal tests and human therapy; cited from earlier work

| SMILES | treatability with hitherto known cytostatics (Harding Passey melanoma) | treatability with hitherto known cytostatics (rhabdomyo-sarcoma) | treatability with hitherto known cytostatics (VX-2 rabbit epitheloma) | LD50 ([1]; ip, 1 x i.p.) [mg/kg] | LD50 ([1]; iv, 1 x i.v.) [mg/kg] | activity relative to vinblastine (cancer) |
| --- | --- | --- | --- | --- | --- | --- |
| CC[C@]1(O)C[C@@H]2CN(CCc3c([nH]c4ccccc34)[C@@](C(=O)OC)(c3cc4c(cc3OC)N(C)[C@H]3[C@@](O)(C(=O)OC)[C@H](OC(C)=O)[C@]5(CC)C=CCN6CC[C@]43[C@@H]65)C2)C1 [Vinblastine, vincaleucoblastine] | could hardly be treated, if at all | could hardly be treated, if at all | could hardly be treated, if at all | 7.6 | 15 |  |
| CC[C@]1(O)C[C@H]2CN(CCc3c([nH]c4ccccc34)[C@@](C(=O)OC)(c3cc4c(cc3OC)N(C=O)[C@H]3[C@@](O)(C(=O)OC)[C@H](OC(C)=O)[C@]5(CC)C=CCN6CC[C@]43[C@@H]65)C2)C1 [Vincristine, leurocristine] | could hardly be treated, if at all | could hardly be treated, if at all | could hardly be treated, if at all | 4 | 3 | more active both in animal tests, and, primarily, in human therapy |
